This passage reports IC50 and melting point results from US7534897B2 (Shionogi & Co., Ltd., priority 2002, dated 2009).

One data set addresses T1, CRTH2 (Homo sapiens, UniProt Q9Y5Y4).
T1 construct: expressed in transfected cells; host or cells: K562 cells (membrane fraction)
T1 sequence (Q9Y5Y4 1-395): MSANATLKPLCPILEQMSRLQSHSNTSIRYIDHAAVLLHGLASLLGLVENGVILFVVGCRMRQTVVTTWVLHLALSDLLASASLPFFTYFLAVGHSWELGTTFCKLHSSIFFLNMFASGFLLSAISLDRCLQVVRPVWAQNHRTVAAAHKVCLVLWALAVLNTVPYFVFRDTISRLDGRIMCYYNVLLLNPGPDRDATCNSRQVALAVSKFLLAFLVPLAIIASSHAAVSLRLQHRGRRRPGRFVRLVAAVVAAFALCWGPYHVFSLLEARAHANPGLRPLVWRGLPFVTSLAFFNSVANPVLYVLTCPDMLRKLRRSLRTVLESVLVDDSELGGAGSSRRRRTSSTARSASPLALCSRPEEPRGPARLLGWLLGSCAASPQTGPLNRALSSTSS
Nature of the data set: Binding activity to CRTH2 ([3H]PGD2 binding assay). Conditions: membrane fraction of CRTH2-transfected K562 cells, read-out: CRTH2 inhibitory activity IC50. Here is the method: Experiment 1 Binding Activity to CRTH2
The membrane fraction prepared with CRTH2-transfected K562 cells was used for a binding assay. To a binding-reaction solution (50 mM Tris/HCl, pH 7.4, 10 mM MgCl2) the membrane fraction (0.06 mg) and 3 nM [^3H]PGD2 (172 Ci/mmol) were added, and the mixture was reacted at room temperature for 60 min. After the reaction, the mixture was filtered through a glass fiber filter paper and washed several times with cooled physiological saline, then the radioactivity retained on the filter paper was measured. The specific-binding ratio was calculated by subtracting the non-specific binding ratio which is the radioactivity similarly measured in the presence of 10 μM PGD2 from the total binding.

Consider `O=C(O)Cn1cc(C2CCC(NS(=O)(=O)c3ccc(F)cc3)C2)c2ccccc21` (stereo not shown) [Ij-1], for which, on CRTH2, the IC50 worked out at 26 nM.

Consider `CN(C1CCC(c2cn(CC(=O)O)c3ccccc23)C1)S(=O)(=O)c1ccc(F)cc1` (stereo not shown) [Ij-2], for which the IC50 on CRTH2 came out at 53 nM.

On to `Cc1cc2cc(N(C)S(=O)(=O)c3ccc(F)cc3)ccc2n1CC(=O)O` [Ik-2], for which the melting point was 206 to 208 °C (dec.). In addition, the IC50 at CRTH2 turned out to be 86 nM.

Turning to `CCc1c(C)n(CC(=O)O)c2ccc(N(C)S(=O)(=O)c3ccc(F)cc3)cc12` [Ik-5], the melting point was in the range of 161 to 167 °C. Also, the IC50 on CRTH2 stood at 19 nM.

Regarding `Cc1ccc(S(=O)(=O)NC2CCc3c(c4ccccc4n3CC(=O)O)C2)cc1` (single isomer, unassigned; (+)) [(+)-Ib-18], the IC50 on CRTH2 is 13 nM.

As to `COc1ccc(S(=O)(=O)N(C)c2ccc3c(c2)c2c(n3CC(=O)O)CCCCC2)cc1` [Ig-14], the melting point lay within 144 to 150 °C. Also, the IC50 on CRTH2 turned out to be 8.3 nM.

Turning to `CN(CCc1cn(CC(=O)O)c2ccccc12)S(=O)(=O)c1ccc(F)cc1` [Ia-39], the IC50 at CRTH2 worked out at 45 nM.

On to `O=C(O)Cn1cc(CCN(Cc2cccs2)S(=O)(=O)c2ccc(F)cc2)c2ccccc21` [Ia-65], for which the 50% inhibitory concentration (IC50) on CRTH2 worked out at 27 nM.

For the molecule `O=C(O)Cn1cc(CCN(Cc2ccc([N+](=O)[O-])cc2)S(=O)(=O)c2ccc(F)cc2)c2ccccc21` [Ia-63], at CRTH2, the IC50 stood at 54 nM.

Molecule `CN(C1CCc2c(c3ccccc3n2CC(=O)O)C1)S(=O)(=O)c1ccsc1` (stereo not shown) [Ib-30] returned a melting point of 175 to 180 °C. The IC50 on CRTH2 was determined as 5.3 nM.

As for `COc1ccc2c(c1)c(CCN(Cc1ccccc1)S(=O)(=O)c1ccc(F)cc1)cn2CC(=O)O` [Ia-57], on CRTH2, the IC50 was 57 nM.

In the case of `Cc1c(CCNS(=O)(=O)c2ccc(F)cc2)c2ccccc2n1CC(=O)O` [Ia-20], the IC50 at CRTH2 came out at 22 nM.

For the molecule `CN(c1ccc2c(c1)c1c(n2CC(=O)O)CCSC1)S(=O)(=O)c1ccc(F)cc1` [Ig-3], the melting point was in the range of 214 to 217 °C. In addition, the IC50 on CRTH2 was determined as 9.7 nM.

Consider `CS(=O)(=O)NC(=O)Cn1cc(CCN(Cc2ccccc2)S(=O)(=O)c2ccc(F)cc2)c2ccccc21` [Ia-52], for which the IC50 at CRTH2 was determined as 24 nM.

Consider `O=C(O)Cn1cc(C2CCN(S(=O)(=O)c3ccc(F)cc3)C2)c2ccccc21` (stereo not shown) [Ic-14], for which the melting point lay within 155 to 156 °C. Besides, at CRTH2, the IC50 was 5.5 nM.

The molecule `CN(c1ccc2c(c1)c1c(n2CC(=O)O)CCCC1=O)S(=O)(=O)c1ccc(F)cc1` [Ig-4] showed a melting point of 218 to 220 °C. Further, the IC50 at CRTH2 stood at 7.8 nM.

In the case of `O=C(O)Cn1cc(CCCN(Cc2ccccc2)S(=O)(=O)c2ccc(F)cc2)c2ccccc21` [Ia-85], on CRTH2, the IC50 worked out at 80 nM.

For `CN(CCc1cn(CC(=O)O)c2ccc(F)cc12)S(=O)(=O)c1ccc(F)cc1` [Ia-45], at CRTH2, the IC50 turned out to be 19 nM.

In the case of `O=C(O)Cn1cc(CCN(Cc2ccccc2)S(=O)(=O)c2ccc(F)cc2)c2cc(F)ccc21` [Ia-59], the IC50 on CRTH2 is 23 nM.

Turning to `Cc1c(C(C)(C)CNS(=O)(=O)c2ccc(F)cc2)c2ccccc2n1CC(=O)O` [If-1], the IC50 at CRTH2 was 19 nM.

With `O=C(O)Cn1cc(CCNS(=O)(=O)c2ccc(F)cc2)c2cc(Cl)ccc21` [Ia-32], the IC50 on CRTH2 came out at 18 nM.

In the case of `O=C(O)Cn1c2c(c3cc(NS(=O)(=O)c4ccc(F)cc4)ccc31)CCCCCC2` [Ig-18], the melting point was 193 to 197 °C. Moreover, the IC50 at CRTH2 was found to be 19 nM.

The molecule `CC1CCc2c(c3cc(N(C)S(=O)(=O)c4ccc(F)cc4)ccc3n2CC(=O)O)C1` (stereo not shown) [Ih-5] yielded a melting point of 100 to 101 °C. Besides, on CRTH2, the IC50 amounted to 23 nM.

The molecule `O=C(O)Cn1c2c(c3cc(NS(=O)(=O)c4ccc(F)cc4)ccc31)CCCCC2` [Ig-11] registered a melting point of 209 to 211 °C. For the same molecule, the IC50 at CRTH2 turned out to be 10 nM.

On to `CC(C)N(CCc1cn(CC(=O)O)c2ccccc12)S(=O)(=O)c1ccc(F)cc1` [Ia-48], for which, at CRTH2, the IC50 turned out to be 57 nM.

For `CN(C1CCc2c(c3ccccc3n2CC(=O)O)C1)S(=O)(=O)c1cccs1` (single isomer, unassigned; (+)) [(+)-Ib-29], the half-maximal inhibitory concentration (IC50) on CRTH2 was 4.9 nM.

In the case of `O=C(O)Cn1cc(C(CNS(=O)(=O)c2ccc(F)cc2)c2ccccc2)c2ccccc21` (stereo not shown) [If-9], the melting point is 117 to 120 °C. The IC50 on CRTH2 amounted to 12 nM.

With `O=C(O)Cn1c2c(c3cc(N(Cc4ccccc4)S(=O)(=O)c4ccc(F)cc4)ccc31)CCCC2` [Ih-3], the melting point was in the range of 198 to 202 °C. Besides, the IC50 at CRTH2 was 33 nM.

`CN(c1ccc2c(c1)c1ccccc1n2CC(=O)O)S(=O)(=O)c1ccc(F)cc1` [Ie-5] displayed a melting point of 188 to 191 °C. Besides, the IC50 on CRTH2 is 18 nM.

With `O=C(O)Cn1c2ccccc2c2cc(NS(=O)(=O)c3ccc(F)cc3)ccc21` [Ie-2], the melting point was in the range of 139 to 141 °C. Further, the IC50 at CRTH2 was 39 nM.

As to `O=C(O)Cn1c2c(c3ccccc31)CC(NS(=O)(=O)c1cccs1)CC2` (single isomer, unassigned; (+)) [(+)-Ib-20], the IC50 on CRTH2 came to 7.9 nM.

With `Cc1c(C(C)CNS(=O)(=O)c2ccc(F)cc2)c2ccccc2n1CC(=O)O` (stereo not shown) [If-4], the IC50 at CRTH2 was 16 nM.

Regarding `O=C(O)Cn1cc(C2=CCCN(S(=O)(=O)c3ccc(F)cc3)C2)c2ccccc21` [Ic-2], the melting point lay in the range of 142 to 143 °C. At CRTH2, the IC50 stood at 21 nM.

With `CN(c1ccc2c(c1)c1c(n2CC(=O)O)CCCCC1)S(=O)(=O)c1ccc(O)cc1` [Ig-16], the melting point was in the range of 186 to 189 °C. Also, the IC50 at CRTH2 is 3.6 nM.

Turning to `O=C(O)Cn1c2c(c3ccccc31)CC(NS(=O)(=O)c1ccc(F)cc1)CC2` (single isomer, unassigned; (+)) [(+)-Ib-16], the concentration for half-maximal inhibition (IC50) on CRTH2 came out at 5.9 nM.

Consider `Cc1ccccc1CN(CCc1cn(CC(=O)O)c2ccccc12)S(=O)(=O)c1ccc(F)cc1` [Ia-61], for which the IC50 at CRTH2 turned out to be 45 nM.

For `CN(CCc1cn(CC(=O)O)c2ccc(Cl)cc12)S(=O)(=O)c1ccc(F)cc1` [Ia-44], the IC50 on CRTH2 turned out to be 23 nM.

Take `CN(C1Cc2c(n(CC(=O)O)c3ccccc23)C1)S(=O)(=O)c1ccc(F)cc1` (stereo not shown) [Ib-6]: the IC50 on CRTH2 stood at 55 nM.

As to `Cc1c(CCN(Cc2ccccc2)S(=O)(=O)c2ccc(F)cc2)c2ccccc2n1CC(=O)O` [Ia-55], on CRTH2, the IC50 is 42 nM.

As for `O=C(O)Cn1c2c(c3ccccc31)CC(NS(=O)(=O)c1ccsc1)CC2` (stereo not shown) [Ib-21], the IC50 on CRTH2 came out at 12 nM.

`O=C(O)Cn1cc(CCNS(=O)(=O)c2ccc(-c3ccc(F)cc3)cc2)c2ccccc21` [Ia-15]: on CRTH2, the IC50 worked out at 37 nM.

In the case of `O=C(O)Cn1cc(CCN(Cc2ccccc2)S(=O)(=O)c2ccc(F)cc2)c2cc(Cl)ccc21` [Ia-58], the half-maximal inhibitory concentration (IC50) at CRTH2 came to 33 nM.

`O=C(O)Cn1cc(C2CCC(N(Cc3ccccc3)S(=O)(=O)c3ccc(F)cc3)C2)c2ccccc21` (stereo not shown) [Ij-3]: at CRTH2, the IC50 came out at 53 nM.

Take `C=CCN(CCc1cn(CC(=O)O)c2ccccc12)S(=O)(=O)c1ccc(F)cc1` [Ia-47]: the IC50 on CRTH2 was found to be 51 nM.

With `O=C(O)Cn1cc(CCN(CCc2ccccc2)S(=O)(=O)c2ccc(F)cc2)c2ccccc21` [Ia-66], on CRTH2, the IC50 turned out to be 37 nM.

With `CCN(c1ccc2c(c1)c1c(n2CC(=O)O)CCCCC1)S(=O)(=O)c1ccc(F)cc1` [Ig-15], the IC50 at CRTH2 was found to be 7.5 nM.

For the molecule `Cc1c(CCN(C)S(=O)(=O)c2ccc(F)cc2)c2ccccc2n1CC(=O)O` [Ia-41], the IC50 at CRTH2 is 34 nM.

`Cc1ccc(S(=O)(=O)N(C)C2CCc3c(c4ccccc4n3CC(=O)O)C2)cc1` (single isomer, unassigned; (+)) [(+)-Ib-27]: the IC50 at CRTH2 was determined as 6.2 nM.

One may read the IC50 as the midpoint of a concentration-inhibition curve. As a reminder, the melting point is the temperature, or range, at which the solid turns liquid.
